According to PubChem BioAssay (NCI):
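96-well plates; 48 h exposure; 5 concentrations. Endpoints by linear interpolation between flanking doses. Not reached: highest tested concentration assigned. The concentration for full growth arrest is given as TGI.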

Key:
Test in all cases: NCI tumour cell line growth inhibition, 48 h
[1] = tested on: SK-MEL-5 melanoma
[2] = tested on: TK-10 renal
[3] = tested on: CCRF-CEM leukemia
[4] = tested on: SF-295 CNS
[5] = tested on: SR leukemia
[6] = tested on: M14 melanoma
[7] = tested on: SF-268 CNS
[8] = tested on: KM12 colon
[9] = tested on: T-47D breast
[10] = tested on: DU-145 prostate
[11] = tested on: MCF7 breast
[12] = tested on: RPMI-8226 leukemia
[13] = tested on: MALME-3M melanoma
[14] = tested on: HCC-2998 colon
[15] = tested on: OVCAR-8 ovarian
[16] = tested on: SNB-75 CNS
[17] = tested on: CAKI-1 renal
[18] = tested on: EKVX NSCLC
[19] = tested on: MOLT-4 leukemia
[20] = tested on: 786-0 renal
[21] = tested on: SW-620 colon
[22] = tested on: NCI-H23 lung
[23] = tested on: COLO 205 colon
[24] = tested on: HCT-15 colon
[25] = tested on: SK-OV-3 ovarian
[26] = tested on: IGROV1 ovarian
[27] = tested on: SN12C renal
[28] = tested on: MDA-MB-231 breast
[29] = tested on: UACC-62 melanoma
[30] = tested on: A549 NSCLC
[31] = tested on: MDA-N
[32] = tested on: SK-MEL-28 melanoma
[33] = tested on: PC-3 prostate
[34] = tested on: HOP-62 NSCLC
[35] = tested on: RXF 393 renal
[36] = tested on: UACC-257 melanoma
[37] = tested on: ACHN renal
[38] = tested on: NCI-H226 lung
[39] = tested on: OVCAR-3 ovarian
[40] = tested on: U251 CNS
[41] = tested on: UO-31 renal
[42] = tested on: K-562 leukemia
[43] = tested on: NCI-H460 lung
[44] = tested on: OVCAR-4 ovarian
[45] = tested on: HCT-116 colon
[46] = tested on: HS 578T breast
[47] = tested on: LOX IMVI melanoma
[48] = tested on: SNB-19 CNS
[49] = tested on: SK-MEL-2 melanoma
[50] = tested on: HL-60(TB) leukemia
[51] = tested on: NCI/ADR-RES ovarian
[52] = tested on: HT29 colon
[53] = tested on: SF-539 CNS
[54] = tested on: NCI-H522 lung
[55] = tested on: OVCAR-5 ovarian
[56] = tested on: MDA-MB-435
[57] = tested on: A498 renal

SMILES: c1ccc(COC[C@H]2O[C@@H](c3ccccc3)C[C@@H](OCc3ccccc3)C2OCc2ccccc2)cc1 (some centres undefined)
- TGI [1]: > 10 µM
- TGI [2]: > 10 µM
- TGI [3]: > 10 µM
- TGI [4]: > 10 µM
- TGI [5]: > 10 µM
- TGI [6]: > 10 µM
- TGI [7]: > 10 µM
- TGI [8]: > 10 µM
- TGI [9]: > 10 µM
- TGI [10]: > 10 µM
- TGI [11]: > 10 µM
- TGI [12]: > 10 µM
- TGI [13]: > 10 µM
- TGI [14]: > 10 µM
- TGI [15]: > 10 µM
- TGI [16]: > 10 µM
- TGI [17]: > 10 µM
- TGI [18]: > 10 µM
- TGI [19]: > 10 µM
- TGI [20]: > 10 µM
- TGI [21]: > 10 µM
- TGI [22]: > 10 µM
- TGI [23]: > 10 µM
- TGI [24]: > 10 µM
- TGI [25]: > 10 µM
- TGI [26]: > 10 µM
- TGI [27]: > 10 µM
- TGI [28]: > 10 µM
- TGI [29]: > 10 µM
- TGI [30]: > 10 µM
- TGI [31]: > 10 µM
- TGI [32]: > 10 µM
- TGI [33]: > 10 µM
- TGI [34]: > 10 µM
- TGI [35]: > 10 µM

SMILES: Cc1[nH]n(-c2nc3c(c(=O)[nH]2)CCCC3)c(=O)c1CCO
- TGI [1]: > 100 µM
- TGI [36]: > 100 µM
- TGI [37]: > 100 µM
- TGI [38]: > 100 µM
- TGI [2]: > 100 µM
- TGI [3]: > 100 µM
- TGI [4]: > 100 µM
- TGI [39]: > 100 µM
- TGI [40]: > 100 µM
- TGI [6]: > 100 µM
- TGI [7]: > 100 µM
- TGI [41]: > 100 µM
- TGI [42]: > 100 µM
- TGI [8]: > 100 µM
- TGI [43]: > 100 µM
- TGI [9]: > 100 µM
- TGI [10]: > 100 µM
- TGI [11]: > 100 µM
- TGI [44]: > 100 µM
- TGI [13]: > 100 µM
- TGI [14]: > 100 µM
- TGI [15]: > 100 µM
- TGI [45]: > 100 µM
- TGI [46]: > 100 µM
- TGI [17]: > 100 µM
- TGI [18]: > 100 µM
- TGI [47]: > 100 µM
- TGI [19]: > 100 µM
- TGI [20]: > 100 µM
- TGI [48]: > 100 µM
- TGI [49]: > 100 µM
- TGI [21]: > 100 µM
- TGI [22]: > 100 µM
- TGI [50]: > 100 µM
- TGI [23]: > 100 µM
- TGI [51]: > 100 µM
- TGI [24]: > 100 µM
- TGI [52]: > 100 µM
- TGI [25]: > 100 µM
- TGI [26]: > 100 µM
- TGI [53]: > 100 µM
- TGI [54]: > 100 µM
- TGI [55]: > 100 µM
- TGI [27]: > 100 µM
- TGI [28]: > 100 µM
- TGI [56]: > 100 µM
- TGI [29]: > 100 µM
- TGI [30]: > 100 µM
- TGI [31]: > 100 µM
- TGI [32]: > 100 µM
- TGI [33]: > 100 µM
- TGI [57]: > 100 µM
- TGI [34]: > 100 µM
- TGI [35]: > 100 µM
